Laboratory results from paper PMC9102502, “The Influence of Selected Antipsychotic Drugs on Biochemical Aspects of Alzheimer’s Disease” (International Journal of Molecular Sciences, 2022).

Tested on: HUVEC cells
Test: WST-1 viability under AAPH-induced oxidative stress, HUVEC
Assay type: cell-based, human
Conditions: AAPH 17.5 mmol/L, relative to pure medium control
Protocol: WST-1 assay (Takara, Takara Bio Europe, Saint-Germain-en-Laye, France) was used to assess the effects of antipsychotics on the growth of HUVEC and astrocytes. The experiments were conducted as described previously. HUVEC were seeded at a density of 7500 cells, and astrocytes at 5000 cells per well on 96-well microplates and cultured for 24 h followed by treatment with compounds at ½ × TPCmax and TPCmax or pure medium as a control (v = 100 μL) for another 24 h (37 °C, 5% CO2). Subsequently, the cells were washed with culture medium (100 μL) and WST-1 reagent diluted in medium (10 μL of reagent + 90 μL of medium) was added. The plates were incubated at 37 °C in 5% CO2 for another 90 min for HUVEC and 60 min for astrocytes. The absorbance was read at 450 nm using a microplate reader (iMARK, Bio-Rad, Hercules, CA, USA). The cells viability was expressed as a percentage of the control samples which constituted 100% viability.
Moreover, the WST-1 assay was used to evaluate potential protective effects of antipsychotics on the growth of HUVEC and astrocytes under conditions of AAPH-induced oxidative stress. The experimental conditions were the same as in viability studies. AA at the final concentration of 10 μg/mL was used as an antioxidant control. After reaching the confluence, the antipsychotics were added at concentrations equaling ½ × TPCmax and TPCmax. After 1 h incubation under standard conditions, 50 μL AAPH was added to the wells containing tested compounds or AA. The AAPH concentration was chosen on the basis of preliminary experiments—17.5 mmol/L in HUVEC experiments, and 15.0 mmol/L in the case of astrocytes.

**Q.** Which results are given for `OCCOCCN1CCN(C2=Nc3ccccc3Sc3ccccc32)CC1` [Quetiapine, quetiapine]?
**A.** viability of HUVEC under AAPH (TPC (bromperidol 25 μg/L, quetiapine 400 μg/L)): 74.9%; viability of HUVEC under AAPH (½ × TPC (bromperidol 12.5 μg/L, quetiapine 200 μg/L)): 66.8%
